Assay results taken from US8710064B2, “2-aryl-4-quinazolinones and their pharmaceutical compositions” (China Medical University, priority 2011, dated 2014).
Where two headings read alike, the source gives them in different places.

Columns and labels:
[1] = system: M21, CH27, H460, Hep3B and HSC-3 cells; experiment: trypan blue exclusion assay, cancer cell panel (summary); type: cell-based; conditions: summary of Table 2
Procedure: (§1) Cell viability was also determined by trypan-blue exclusion assay. Cells were seeded in 6-well plates (2×10^4/well) for trypan blue exclusion assay, and incubated for 24 hours at 37° C. Culture medium containing test compound or DMSO (0.006%) was added to each well, and cells were incubated at 37° C. At indicated time points (0, 24, 48, 72 and 96 hr), cells were suspended with 0.05% trypsin-EDTA, and stained with trypan-blue dye (0.4%) (Sigma). The cell viability was evaluated by the percentage of death relative to the total cell, and cell growth curve was determined by number of live cells relative to the total number of cells.
(§2) The anti-proliferation effects of Compounds 17-31 on M21, CH27, H460, Hep3B and HSC-3 cells were evaluated by the trypan blue exclusion assay.

C6 glioma cells [2] = experiment: G1 synchronized by Ara-C, flow cytometry; type: cell-based, rat; conditions: 60 nM MJ-66 after 41.6 nM Ara-C 12 hours; at 12th and 24th hours
Procedure: At indicated time points (0, 6, 12 and 24 hr), >10^6 cells were collected and fixed in 70% ethanol over 1 hour at −20° C. After staining with PI as described, DNA content of ten thousand cells was analyzed by flow cytometry.
To investigate the influence of MJ-66 on normal glia such as human glia cell line SVGP12 and rat primary glia cells, cells were treated with different concentrations of MJ-66 in vitro (0.00625, 0.0125, 0.025, 0.05, 0.1 and 1 μM) for different time durations (0, 6, 12 and 24 hours) and the cell viability was assessed by MTS assay. Cells alone or treated with DMSO were used as control. […] However, most glia cells in animals are static and their proliferation rate is almost silent. Therefore, cytosine arabinoside (Ara-C), a DNA synthesis inhibitor, was further used to inhibit glioma cell proliferation and glioma cells were then treated with MJ-66 or DMSO as described in “General materials and methods”. Specifically, after C6 glioma cells were treated with 41.6 nM Ara-C for 12 hours, and then treated with solvent (DMSO) or 60 nM MJ-66 for 0, 6, 12 and 24 hours, the cell cycle distributions and DNA content of the cells were monitored by flow cytometry with propidium iodide staining C6 glioma cells treated with 41.6 nM Ara-C for 12 hours (12 hr) were detected by flow cytometry with propidium iodide staining as control.

M21 = experiment: trypan blue exclusion assay, M21 cells; type: cell-based; conditions: Homo sapiens
Procedure: M21 cell line (human malignant melanoma) was provided by Dr. Feng-Yao Tang (China Medical University, Taiwan). Cells were grown in monolayer culture in RPMI-1640 medium, Eagle's minimum essential medium or Dulbecco's modified Eagles medium (Invitrogen Corporation, Grand Island, N.Y., USA) containing 10% fetal bovine serum (FBS; HyClone, Logan, Utah, USA), 100 U/ml penicillin and 100 μg/ml streptomycin (Gibco BRL, Rockville, Md., USA).
as §1, §2

Hep3B = experiment: trypan blue exclusion assay, Hep3B cells; type: cell-based; conditions: Hep3B human hepatoma
Procedure: (§3) Hep3B (human hepatocellular carcinoma) and H460 (lung non-small carcinoma) cells were grown in monolayer culture in Dulbecco's modified Eagle's medium (DMEM) (Life Technologies, Rockville, Md., USA) containing 5% fetal bovine serum (HyClone, Logan, Utah, USA), 100 U/ml penicillin and 100 μg/ml streptomycin (Gibco BRL, Rockville, Md., USA) and 2 mM glutamine (Merck, Darmstadt, Germany).
as §1, §2

C6 glioma cells [3] = experiment: cell cycle assay by flow cytometry with propidium iodide; type: cell-based, rat; conditions: 60 nM
Procedure: To analyze cellular DNA content by flow cytometry, 3×10^5 cells were seeded in 10 cm dish and incubated for 24 hours at 37° C. […] At indicated time points (0, 6, 12, 24 and 48 hr), over 10^6 cells were suspended with 0.05% trypsin-EDTA, and fixed in 70% ethanol over 1 hour at −20° C. After washed by phosphate-buffered saline (PBS) twice, cells were then suspended with 1 ml propidium iodide/Triton-X 100 staining solution (20 μg/ml PI, 0.1% Triton-X 100 and 0.2 mg/ml ribonuclease A (RNase A, Sigma) in PBS) and incubated for 30 minutes at room temperature in the dark. After filtered by 35 μm nylon mesh (Falcon, 352235), the DNA content was then analyzed by flow cytometry (FACS can, BD Bioscience). The cell-cycle distribution (subG1, G1, S, G2/M, and >4N DNA content) of ten thousand cells was analyzed by WinMDI software.
To investigate the cell cycle distribution of MJ-66-treated glioma cell, C6 glioma cells were treated with 60 nM MJ-66 for 0, 6, 12, 24, 36 and 48 hours, and the cell cycle distributions of the percentages of cells at subG1, G1, S and G2/M phases and DNA content of cells were monitored by flow cytometry with propidium iodide staining.

H460 = experiment: trypan blue exclusion assay, H460 cells; type: cell-based; conditions: NCI-H460, H460 human non-small cell lung cancer
Procedure: as §3, §1, §2

SMILES: O=c1[nH]c(-c2cccc3ccccc23)nc2ccc(N3CCCC3)cc12 [Compound 23, 6-(Pyrrolidin-1-yl)-2-(naphthalen-1-yl)quinazolin-4-one]
- cytotoxic effects toward cancer cells [1]: exhibited cytotoxic effects
- cell death of G1 arrest (Ara-C-treated) glioma cells (C6 glioma cells [2]): not induced cell death
- IC50 (M21; M21, in vitro, read-out: IC50, growth of human malignant melanoma cells): ~33 nM
- IC50 (M21; M21 skin cancer, trypan blue exclusion assay, read-out: IC50 M21): 33 nM
- IC50 (Hep3B): 1350 nM
- G2/M cell population (C6 glioma cells [3]; after 6 and 12 hours): significantly increased
- sub G1 and >4N DNA content cell population (C6 glioma cells [3]; after 24, 36 and 48 hours, time-dependent): increased
- IC50 (H460): 75 nM
